≈ marks a conversion by molar mass, not a printed value. Like-named read-outs stand apart in the source and are kept apart here.
Legend:
Measles Virus = assay: Measles virus antiviral assay (CPE inhibition, neutral red uptake, virus yield); format: cell-based, Measles virus strain CC; conditions: Measles morbillivirus
[1] = tested on: Respiratory Syncytial Virus; assay: Respiratory syncytial virus antiviral assay (CPE inhibition, neutral red uptake); format: cell-based, Respiratory syncytial virus strain Utah 89; conditions: human respiratory syncytial virus
HIV = assay: Anti-HIV evaluation by MTT-tetrazolium method (inhibition of CPE in MT-2 / CEM-SS cells); format: cell-based; conditions: Human immunodeficiency virus 1, CEM-SS; read-out: Antiviral Activities (EC50) HIV
Protocol: This example illustrates the anti-HIV activity of various coumarin and chromene compounds which were evaluated using the published MTT-tetrazolium methods^8. Retroviral agents AZT and DDC were used as controls for comparison purposes.
The cells used for screening were the MT-2 and the human T4-lymphoblastoid cell line, CEM-SS, and were grown in RPMI 1640 medium supplemented with 10% fetal (v/v) heat-inactivated fetal calf serum and also containing 100 units/mL penicillin, 100 μg/mL streptomycin, 25 mM HEPES and 20 μg/mL gentamicin. The medium used for dilution of drugs and maintenance of cultures during the assay was the same as above. The HTLV-IIIB and HTLV-RF were propagated in CEM-SS. The appropriate amounts of the pure compounds for anti-HIV evaluations were dissolved in DMSO, then diluted in medium to the desired initial concentration. The concentrations (M medium) employed were […]; 0.001 μM; 0.0032 μM; 0.01 μM; 0.032 μM; 0.1 μM; 0.32 μM; 1 μM; 3.2 μM; 10 μM; 32 μM; and 100 μM. Each dilution was added to plates in the amount of 100 μL/well. Drugs were tested in triplicate wells per dilution with infected cells while in duplicate wells per dilution with uninfected cells for evaluation of cytotoxicity. On day 6 (CEM-SS cells) and day 7 (MT-2 cells) post-infection, the viable cells were measured with a tetrazolium salt, MTT (5 mg/mL), added to the test plates. A solution of 20% SDS in 0.001 N HCl is used to dissolve the MTT formazan produced. The optical density value was a function of the amount of formazan produced which was proportional to the number of viable cells. The percent inhibition of CPE per drug concentration was measured as a test over control and expressed in percent (T/C %).

HBV = HBV replication in cultures of 2.2.15 cells (HBV DNA blot hybridization); format: cell-based; conditions: Hepatitis B virus; read-out: Antiviral Activities (EC50) HBV
Protocol: Test compounds are then added daily for a continuous 9 day period. Culture medium (changed daily during the treatment period) is collected and stored for analysis of extracellular (virion) HBV DNA after 0, 3, 6, and 9 days of treatment. Treated cells are lysed 24 hours following day 9 of treatment for the analysis of intracellular HBV genomic forms. HBV DVA is then analyzed in a quantitative and qualitative manner for overall levels of HBV DNA (both extracellular and intracellular DNA) and the relative rate of HBV replication (intracellular DNA).
Both intracellular and extracellular HBV DNA are analyzed in order to (i) allow for verification of compound efficacy and (ii) provide possible data on the target site in the HBV replication pathway for the compound from examination of the pattern of viral replicative forms. The culture medium is changed daily during the treatment period to (i) prevent the buildup of potentially toxic metabolites derived from test compounds and (ii) provide an analysis of HBV virion production during discrete 24-hour intervals which enables a quantitative comparison of any effect on virion production.
The analysis of HBV DNA is performed using blot hybridization techniques (Southern and slot blot) and [^32P]-labeled HBV-specific probes. HBV DNA levels are measured by comparison to known amounts of HBV DNA standards applied to every nitrocellulose membrane (gel or slot blot). An AMBIS beta scanner, which measures the radioactive decay of the hybridized probes directly from the nitrocellulose membranes, is used for the quantitative analysis. Standard curves, generated by multiple analyses, are used to correlate CPM measurements made by the beta scanner with relative levels of target HBV DNA. The levels of HBV virion DNA released into the culture medium are analyzed by a slot blot hybridization procedure. HBV DNA levels are then compared to those at Day 0 to determine the effect of drug treatment.
The levels of RI and episomal monomers are used as an indicator of the relative level of HBV replication. Integrated HBV DNA is used to normalize the relative amounts of DNA in each lane because the levels of this class of HBV DNA would be expected to remain constant on a per cell basis. […] Inhibition of HBV DNA replication is indicated by the loss of RI without changes in the level of integrated HBV DNA.

VZV = VZV plaque reduction assay in human foreskin fibroblast cells; format: cell-based, Varicella Zoster Virus (Ellen strain); conditions: Human alphaherpesvirus 3, Fibroblast; read-out: Antiviral Activities (EC50) VZV
Protocol: [table] Two days prior to use, HFF cells are plated into six-well plates and incubated at 37° C. with 5% CO2 and 90% humidity. On the date of assay, the drug is made up at twice the desired concentration in 2×MEM and then serially diluted 1:5 in 2×MEM using six concentrations of drug. […] The media is then aspirated from the wells and 0.2 mL of virus is added to each well in duplicate with 0.2 mL of media being added to drug toxicity wells. The plates are then incubated for one hour with shaking every fifteen minutes. […] The drug agarose mixture is applied to each well in 2 mL volume and the plates then incubated for three days, after which the cells were stained with a 1.5% solution of neutral red. At the end of 4-6 hr incubation period, the stain is aspirated, and plaques counted using a stereomicroscope at 10× magnification. The procedure is essentially the same as for the HSV plaque assay described above with two exceptions: 1. After addition of the drug, the plates are incubated for ten days. 2.

EBV = EBV assay: superinfection of Raji or Daudi cells with P3HR-1, immunofluorescence for EA and VCA; format: cell-based, Epstein-Barr Virus (P3HR-1); conditions: human gammaherpesvirus 4; read-out: Antiviral Activities (EC50) EBV
Text: There are two prototypes of infectious EBV. One is exemplified by the virus derived from supernatant fluids of the P3HR-1cell line. This cell line produces nontransforming virus that causes the production of early antigen (EA) after primary infection or superinfection of B cell lines. The other prototype is exemplified by the B-95-8 virus. This virus immortalized cord blood lymphocytes and induced tumors in marmosets. […] The virus used in our assays is P3HR-1.
Ramos is an exceptional B cell line derived from Burkitt's lymphoma tumor but containing no detectable EBV genome copies and is EBNA negative. Ramos/AW was obtained by in vitro infection of Ramos with the P3HR-1 virus and contains one resident EBV genome copy/cell. Raji is a Burkitt's lymphoma cell line containing 60 EBV genomes/cell, and will be the primary cell used for screening antiviral activity against EBV EA expression. Daudi is a low level producer that contains 152 EBV genome copies/cell. It spontaneously expresses EBV EA in 0.25%-0.5% of the cells. It will be used in follow-up studies to confirm activity. These cell lines respond to superinfection by EBV by expressing EA(D), EA(R), and VCA. All cell lines are maintained in RPMI-1640 medium supplemented by 10% FCS, L-glutamine and 100 μg/mL gentamicin. The cultures are fed twice weekly and the cell concentration adjusted to 3×10^5/mL. The cells are kept at 37° C. in a humidified atmosphere with 5% CO2.
Cells are infected with the P3HR-1 strain of EBV and the drugs to be tested are added after adsorption (45 minutes at 37° C.) and washing of the cell cultures. The cultures are incubated for two days in complete medium to allow viral gene expression. Following the 48 hr incubation period, the number of cells of each sample are counted and smears made. Monoclonal antibodies to the different EA components and VCA are then added to the cells incubated and washed. This is followed by a fluorescein conjugated rabbit anti-mouse Ig antibody; and the number of fluorescence positive cells in the smears are counted. The total number of cells in the cultures positive for EA or VCA are then calculated and compared.

Rhinovirus = Rhinovirus antiviral assay (CPE inhibition, neutral red uptake, virus yield); format: cell-based; conditions: Enterovirus
[2] = CPE inhibition, read-out: Antiviral Activities (EC50) Measles (CPE)
[3] = neutral red (NR) dye uptake, read-out: Antiviral Activities (EC50) Measles (NR)
[4] = readout not stated, read-out: Antiviral Activities (EC50) Respiratory Syncitial
[5] = readout not stated, read-out: Antiviral Activities (EC50) Rhinovirus
[6] = CPE inhibition, read-out: Antiviral Activities (EC50) Rhinovirus (CPE)
[7] = neutral red (NR) dye uptake, read-out: Antiviral Activities (EC50) Rhinovirus (NR)

Row | Structure (SMILES) | EC50 (Measles Virus; [2]) [µg/mL] | EC50 (Measles Virus; [3]) [µg/mL] | EC50 (Measles Virus; read-out: Antiviral Activities (EC50) Measles (virus yield)) [µg/mL] | EC50 [1, 4] [µg/mL] | EC50 (HIV) [µg/mL] | EC50 (HBV) [µg/mL] | EC50 (VZV) [µg/mL] | EC50 (EBV) [µg/mL] | EC50 (Measles Virus; readout not stated, read-out: Antiviral Activities (EC50) Measles) [µg/mL] | EC50 (Rhinovirus; [5]) [µg/mL] | EC50 (Rhinovirus; [6]) [µg/mL] | EC50 (Rhinovirus; [7]) [µg/mL] | EC50 ([1]; CPE inhibition, read-out: Antiviral Activities (EC50) Respiratory Syncitial (CPE)) [µg/mL] | EC50 ([1]; neutral red (NR) dye uptake, read-out: Antiviral Activities (EC50) Respiratory Syncitial (NR)) [µg/mL]
1 | CCCc1cc(=O)oc2cc(OC(=O)CC)c3c(c12)OC(C)(C)C=C3 | 0.4 (≈ 1.17 µM) | 0.3 (≈ 0.876 µM) | 0.32 (≈ 0.935 µM) | 1 (≈ 2.92 µM) | > 2 | > 10 | > 4 |  |  |  |  |  |  | 
2 | CCCc1cc(=O)oc2cc(OC(=O)C(C)(C)C)c3c(c12)OC(C)(C)C=C3 | 0.2 (≈ 0.54 µM) | 0.6 (≈ 1.62 µM) |  |  | > 7 | > 10 | > 100 | 0.39 (≈ 1.05 µM) |  |  |  |  |  | 
3 | CCCc1cc(=O)oc2cc(OS(=O)(=O)c3ccc(C)cc3)c3c(c12)OC(C)(C)C=C3 |  |  |  | > 100 | 1.6 (≈ 3.63 µM) | > 10 | > 100 | 0.2 (≈ 0.454 µM) | > 100 | > 100 |  |  |  | 
4 | CCCc1cc(=O)oc2cc(O)c3c(c12)OC(C)(C)C=C3 | 0.5 (≈ 1.75 µM) | 0.6 (≈ 2.1 µM) |  | 1 (≈ 3.49 µM) |  | > 10 | 89 (≈ 311 µM) | > 50 |  |  |  |  |  | 
5 | CCCc1cc(=O)oc2cc(OC(=O)CC)cc(O)c12 | 2 (≈ 7.24 µM) | 1 (≈ 3.62 µM) |  | 3 (≈ 10.9 µM) | > 5 | > 3 | > 20 | > 50 |  | > 100 |  |  |  | 
6 | CCCc1cc(=O)oc2cc(OS(=O)(=O)c3ccc(C)cc3)cc(O)c12 | 1 (≈ 2.67 µM) | 1 (≈ 2.67 µM) |  |  | > 2 | 2.1 (≈ 5.61 µM) | > 100 | 2.1 (≈ 5.61 µM) |  |  | 1 (≈ 2.67 µM) | 2 (≈ 5.34 µM) | 3 (≈ 8.01 µM) | 2 (≈ 5.34 µM)
7 | CCCc1cc(=O)oc2cc(OC(=O)C(C)(C)C)cc(OC(=O)C(C)(C)C)c12 | 2 (≈ 5.15 µM) | 3 (≈ 7.72 µM) |  | > 100 | 2.2 (≈ 5.66 µM) | > 4 | 5.6 (≈ 14.4 µM) | 3.7 (≈ 9.52 µM) |  | 20 (≈ 51.5 µM) |  |  |  | 
8 | CCCc1cc(=O)oc2cc(OCC(C)(C)C(=O)O)c3c(c12)OC(C)(C)C=C3 | > 100 | > 100 |  | > 100 | > 8 | 2.6 (≈ 6.73 µM) |  |  |  |  | 10 (≈ 25.9 µM) | 1 (≈ 2.59 µM) |  | 
9 | CCCc1cc(=O)oc2cc(OC(C)CCO)c3c(c12)OC(C)(C)C=C3 (stereo not drawn) |  |  |  |  | 1.5 (≈ 4.18 µM) |  |  |  |  |  |  |  |  | 

Source: US20030176494A1, “Novel coumarin and chromene compounds and methods of preparation and use thereof for treating or preventing viral infections” (priority 2001, published 2003)
